# Reference: PubChem BioAssay (NCI)
# Several values for one entry are separate records, joined by “and”; a condition that tells them apart may be missing. Equal entries are not always repeated.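 Five concentrations, 48 hours, 96-well plates. GI50 marks 50% less growth. TGI: concentration producing complete growth inhibition.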
# Tested on: MDA-MB-468 breast
# Assay: inhibition of tumour cell growth, NCI panel, 48 h
SMILES,GI50,TGI
CCC(=C(c1ccc(OCCN2CCCC2)cc1)c1ccc(OCCN2CCCC2)cc1)c1ccc(Cl)cc1,0.533 µM,1.07 µM
COc1cc(NCCC2CCCCN2)c2ncccc2c1OC (configuration not stated),2.07 µM,4.18 µM
Cc1ccc(NC2=CC(=O)C(=O)c3ccccc32)cc1,1.97 µM,5.74 µM
C=CCN1C(=O)[C@]2(SC1=S)[C@H](c1cccc(Cl)c1)CN(C)[C@]21C(=O)NC2C=CC(Cl)=C[C@H]21 (some centres not stated),3.24 µM,14.3 µM
Nc1nc(N)c(-c2ccc(Cl)c(Cl)c2)c(CP(Cl)(Cl)(Cl)Br)n1,7.45 µM,36.1 µM
COc1cccc(-c2nn(-c3ccccc3)cc2-c2ccnc(NCCCNS(=O)(=O)c3ccc(C(F)(F)F)cc3)c2)c1,3.11 µM,> 100 µM
O=C(CCl)Nc1ccc(Cc2ccc(NC(=O)CCl)cc2)cc1,2.03 µM,5.57 µM
Cn1cc(-c2nc(-c3cn(C)c4ncccc34)cs2)c2ccccc21,0.169 µM,0.719 µM
COc1cc(/C=C/c2ccnc3ccccc23)cc(OC)c1OC,1.19 µM,5.67 µM
CC[Si](CC)(CC)OC1[C@@H](O[Si](CC)(CC)CC)[C@@H](CNC(=O)NC)O[C@H]1n1cnc2c(NC(=O)Nc3ccccc3)ncnc21 (some centres not stated),4.24 µM,57.4 µM
O=C(CC1Sc2ccccc2NC1=O)NNc1ccc(F)cc1 (configuration not stated),> 100 µM,> 100 µM
CC[C@H](CO)Nc1ccc2ncc(C#Cc3cncc(C(=O)Nc4ccc(CN5CCN(C)CC5)c(C(F)(F)F)c4)c3)n2n1,0.126 µM,0.376 µM
NC(Cc1c[nH]c2cccc(F)c12)C(=O)O (configuration not stated),50.8 µM and 494 µM,2050 µM
Nc1no[n+]([O-])c1-c1nnc2c(n1)-c1ccccc1C2=O,2.19 µM,5.64 µM
COc1ccc(NC(=O)c2cccc(C3CCc4c(cc(OC)c(OC)c4OC)O3)c2)cc1 (configuration not stated),2.6 µM,> 100 µM
CC(C)(C)OC(=O)N1Cc2cc3ccccc3nc2C1CO (configuration not stated),> 100 µM,> 100 µM
C[C@@H](Oc1cc(-c2cnn(C3CCNCC3)c2)cnc1N)c1c(Cl)cc(F)cc1Cl,1.31 µM,2.92 µM
CCN(CC)CCCNc1cc(OC)c(OC)c2cccnc12,3.85 µM,14.6 µM
COc1ccc2nc3ccccc3c(NCc3ccccc3)c2c1,1.77 µM,4.05 µM
O=C(Nc1ccc(Cl)cc1)N1CCN(c2ccc3nncn3n2)CC1,26.9 µM,99.3 µM

SMILES,GI50,TGI
CC1(C)CC[C@]2(CO)CC[C@]3(C)C(=CC[C@@H]4[C@@]5(C)CCNCC(C)(C)[C@@H]5CC[C@]43C)[C@@H]2C1,1.8 µM,3.79 µM
NCCCNc1nc2ccccc2c2c(=O)c3cc(F)cc(Cl)c3sc12,1.69 µM,3.71 µM
C=C1C(=O)O[C@H]2[C@H]1CC/C(COC(=O)/C=C\C(=O)NCc1ccc(Cn3c(=O)sn(-c4ccc(Cl)cc4)c3=O)cc1)=C\CC[C@@]1(C)O[C@@H]21,0.568 µM,1.37 µM
CC1(C)CN(CCNc2nccc(-c3c(-c4cccc(O)c4)nc4sccn34)n2)S(=O)(=O)N1,7.03 µM,> 33.2 µM
CCN(CC)CCCC(C)Nc1ccnc(/C=C/c2ccc(Cl)cc2)c1 (configuration not stated),1.45 µM,2.86 µM
O=c1[nH]c2ccccc2n1C1CCN(CCOc2ccccc2)CC1,6.25 µM,57.8 µM
CCC(C(=O)[C@@H](C)[C@@H](O)[C@H](C)[C@@H]1O[C@@H]([C@@H](CC)C(=O)ONC(=O)c2ccccc2)CC[C@@H]1C)[C@H]1O[C@]2(C=CC(=O)[C@]3(CC[C@@](C)([C@H]4CC[C@](O)(CC)[C@H](C)O4)O3)O2)[C@H](C)C[C@@H]1C (some centres not stated),0.0992 µM,0.979 µM
CCOC(=O)c1cc(C(=O)c2cc(OC)c(OC)c(OC)c2)n2ccc(-c3cc[n+](CC(=O)c4cc(OC)c(OC)c(OC)c4)cc3)cc12,1.94 µM,3.81 µM
C=C1C(=O)O[C@H]2[C@H]1CC/C(COC(=O)N[C@H](Cc1c[nH]c3ccccc13)C(=O)OC)=C\CC[C@@]1(C)O[C@@H]21,1.02 µM,3.92 µM
CN(c1ccc(F)cc1)S(=O)(=O)c1ccc(-c2cnc(C3CC3)o2)cc1,0.0544 µM,8.98 µM
CC(=O)/C=C/c1ccc(N(CCO)Cc2ccc(C(C)(C)C)cc2)cc1,31.1 µM,127 µM
CCOC(=O)c1cc2c(n1Cc1ccccc1OC)-c1oncc1CCC2,2.95 µM,> 100 µM
OCC1OC(n2cnc3c(NCc4ccco4)ncnc32)C(O)C1O (configuration not stated),1.36 µM,3.16 µM
CN(C)C/C=C/C(=O)Nc1cc2c(Nc3cccc(Cl)c3F)ncnc2cc1OCCOC(F)F,< 0.01 µM,
O=C(c1ccc(Nc2nccc(NCCCCNc3ccnc4cc(Cl)ccc34)n2)cc1)N1CCCCC1,1.47 µM,3.47 µM
CN1CCN(c2ccc(Nc3nc(NCCCNS(=O)(=O)c4ccc(F)cc4)c4sccc4n3)cc2)CC1,10.2 µM,22.6 µM
CCOC(=O)c1cc2c(n1Cc1cc(OC)cc(OC)c1)-c1oncc1CC2,0.0364 µM,0.268 µM
CCCCC[C@H]1C/C=C2/C(=O)C(Cl)=C[C@@H]2C/C=C\CCCC(=O)O1,0.357 µM,1.04 µM
Cc1nn(-c2ccccc2)c2nc(C)n(-c3ccc(Br)cc3)c(=O)c12,0.476 µM,53 µM
